Laboratory results as given in US11149023B2, “Substituted triazole derivatives and uses thereof” (Bayer Pharma Aktiengesellschaft, priority 2017, dated 2021).

Columns and labels:
human V1a receptor = human V1a receptor (Homo sapiens (Human), UniProt P37288); assay: Cellular in vitro assay for determining vasopressin receptor activity (V1a, aequorin luminescence); type: cell-based; conditions: for IC50: CHO cell line transfected with human V1a receptor, [Arg8]-vasopressin at EC50 concentration, read-out: IC50 hV1a; for ratio IC50 hV2/hV1a: selectivity, IC50 hV2 divided by IC50 hV1a
Chain of human V1a receptor (P37288 whole entry): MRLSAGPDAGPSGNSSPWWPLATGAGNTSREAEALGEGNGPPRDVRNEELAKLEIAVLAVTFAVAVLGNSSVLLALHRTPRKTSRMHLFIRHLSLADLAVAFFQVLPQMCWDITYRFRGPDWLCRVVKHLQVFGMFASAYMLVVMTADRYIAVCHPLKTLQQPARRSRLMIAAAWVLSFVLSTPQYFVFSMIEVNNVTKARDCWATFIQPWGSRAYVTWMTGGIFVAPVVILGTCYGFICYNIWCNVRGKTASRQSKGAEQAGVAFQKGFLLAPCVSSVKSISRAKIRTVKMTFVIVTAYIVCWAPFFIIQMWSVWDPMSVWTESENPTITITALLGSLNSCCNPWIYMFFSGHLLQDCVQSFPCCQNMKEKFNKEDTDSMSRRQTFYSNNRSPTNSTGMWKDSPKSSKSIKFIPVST

human V2 receptor = human V2 receptor (Homo sapiens (Human), UniProt P30518); assay: Cellular in vitro assay for determining vasopressin receptor activity (V2, CRE-luciferase); type: cell-based; conditions: CHO cell line transfected with human V2 receptor; [Arg8]-vasopressin at EC50 concentration; read-out: IC50 hV2
Chain of human V2 receptor (P30518 whole entry): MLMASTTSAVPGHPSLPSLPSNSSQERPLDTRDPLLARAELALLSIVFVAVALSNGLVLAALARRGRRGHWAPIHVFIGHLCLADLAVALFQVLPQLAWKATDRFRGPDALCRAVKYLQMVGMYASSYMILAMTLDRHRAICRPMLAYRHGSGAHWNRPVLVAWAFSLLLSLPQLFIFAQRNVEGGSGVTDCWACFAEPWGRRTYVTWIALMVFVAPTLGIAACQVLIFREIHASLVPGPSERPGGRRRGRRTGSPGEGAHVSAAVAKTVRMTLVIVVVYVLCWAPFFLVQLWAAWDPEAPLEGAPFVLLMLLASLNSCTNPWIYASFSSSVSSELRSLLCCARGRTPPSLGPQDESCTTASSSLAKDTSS
Method: B-1. Cellular In Vitro Assay for Determining Vasopressin Receptor Activity
The identification of agonists and antagonists of the V1a and V2 vasopressin receptors from humans, rats and dogs as well as the quantification of the activity of the compounds of the invention is carried out using recombinant cell lines. These cell lines originally derive from a hamster's ovary epithelial cell (Chinese Hamster Ovary, CHO K1, ATCC: American Type Culture Collection, Manassas, Va. 20108, USA). The test cell lines constitutively express the human, rat or dog V1a or V2 receptors. In case of the Gαq-coupled V1a receptors, cells are also stably transfected with a modified form of the calcium-sensitive photoproteins aequorin (human and rat V1a) or obe-lin (dog V1a), which, after reconstitution with the cofactor coelenterazine, emit light when there are increases in free calcium concentrations [Rizzuto R, Simpson A W, Brini M, Pozzan T, Nature 358, 325-327 (1992); Illarionov B A, Bondar V S, Illarionova V A, Vysotski E S, Gene 153 (2), 273-274 (1995)]. The resulting vasopressin receptor cells react to stimulation of the recombinantly expressed Via receptors by intracellular release of calcium ions, which can be quantified by the resulting photoprotein luminescence. The Gs-coupled V2 receptors are stably transfected into cell lines expressing the gene for firefly luciferase under control of a CRE-responsible promoter. Activation of V2 receptors induces the activation of the CRE-responsive promoter via cAMP increase, thereby inducing the expression of firefly luciferase. The light emitted by photoproteins of V1a cell lines as well as the light emitted by firefly luciferase of V2 cell lines corresponds to the activation or inhibition of the respective vasopressin receptor. The bioluminescence of the cell lines is detected using a suitable luminometer [Milligan G, Marshall F, Rees S, Trends in Pharmacological Sciences 17, 235-237 (1996)].
Vasopressin V2 Receptor Cell Lines:
On the day before the assay, the cells are plated out in culture medium (DMEM/F12, 2% FCS, 2 mM glutamine, 10 mM HEPES) in 384-well microtiter plates and kept in a cell incubator (96% humidity, 5% v/v CO2, 37° C.). On the day of the assay, test compounds in various concentrations and the agonist [Arg^8]-vasopressin at EC50 concentration are added together to the wells, and plates are incubated for 3 hours in a cell incubator. Upon addition of the cell lysis reagent Triton™ and the substrate luciferin, luminescence of firefly luciferase is measured in a luminometer.
Table 1A below lists individual IC50 values for the compounds of the invention (including racemic mixtures as well as separated enantiomers) that were obtained from cell lines transfected with the human Via or V2 receptor: […]

Row | SMILES | IC50 (human V1a receptor) | ratio IC50 hV2/hV1a (human V1a receptor) | IC50 (human V2 receptor)
1 | CC(F)(F)C(=O)NC(Cn1c(-c2ccc(Cl)cc2)nn(Cc2ncn(-c3ncccc3C(F)(F)F)n2)c1=O)C(F)(F)F (racemic) [Example 60, N-{3-[3-(4-Chlorophenyl)-5-oxo-1-({1-[3-(trifluoromethyl)pyridin-2-yl]-1H-1,2,4-triazol-3-yl}methyl)-1,5-dihydro-4H-1,2,4-triazol-4-yl]-1,1,1-trifluoropropan-2-yl}-2,2-difluoropropanamide] | 18.5 nM | 83.8 | 1550 nM
2 | O=C(CF)NC(Cn1c(-c2ccc(Cl)cc2)nn(Cc2ncn(-c3ncccc3C(F)(F)F)n2)c1=O)C(F)(F)F (racemic) [Example 61, N-{3-[3-(4-Chlorophenyl)-5-oxo-1-({1-[3-(trifluoromethyl)pyridin-2-yl]-1H-1,2,4-triazol-3-yl}methyl)-1,5-dihydro-4H-1,2,4-triazol-4-yl]-1,1,1-trifluoropropan-2-yl}-2-fluoroacetamide] | 50 nM | 76.0 | 3800 nM
3 | O=C(NC(Cn1c(-c2ccc(Cl)cc2)nn(Cc2ncn(-c3ncccc3C(F)(F)F)n2)c1=O)C(F)(F)F)C1CS(=O)(=O)C1 (racemic) [Example 62, N-{3-[3-(4-Chlorophenyl)-5-oxo-1-({1-[3-(trifluoromethyl)pyridin-2-yl]-1H-1,2,4-triazol-3-yl}methyl)-1,5-dihydro-4H-1,2,4-triazol-4-yl]-1,1,1-trifluoropropan-2-yl}-1,1-dioxo-1lambda^6-thietane-3-carboxamide] | 1.6 nM | 103.1 | 165 nM
4 | O=C(NC(Cn1c(-c2ccc(Cl)cc2)nn(Cc2ncn(-c3ncccc3C(F)(F)F)n2)c1=O)C(F)(F)F)C1CC(F)(F)C1 (racemic) [Example 63, N-{3-[3-(4-Chlorophenyl)-5-oxo-1-({1-[3-(trifluoromethyl)pyridin-2-yl]-1H-1,2,4-triazol-3-yl}methyl)-1,5-dihydro-4H-1,2,4-triazol-4-yl]-1,1,1-trifluoropropan-2-yl}-3,3-difluorocyclobutane-1-carboxamide] | 0.72 nM | 82.2 | 58.8 nM
5 | CS(=O)(=O)CC(=O)NC(Cn1c(-c2ccc(Cl)cc2)nn(Cc2ncn(-c3ncccc3C(F)(F)F)n2)c1=O)C(F)(F)F (racemic) [Example 64, N-{3-[3-(4-Chlorophenyl)-5-oxo-1-({1-[3-(trifluoromethyl)pyridin-2-yl]-1H-1,2,4-triazol-3-yl}methyl)-1,5-dihydro-4H-1,2,4-triazol-4-yl]-1,1,1-trifluoropropan-2-yl}-2-(methanesulfonyl)acetamide] | 1.2 nM | 65.2 | 78.2 nM
6 | N#CC1(C(=O)NC(Cn2c(-c3ccc(Cl)cc3)nn(Cc3ncn(-c4ncccc4C(F)(F)F)n3)c2=O)C(F)(F)F)CC1 (racemic) [Example 65, N-{3-[3-(4-Chlorophenyl)-5-oxo-1-({1-[3-(trifluoromethyl)pyridin-2-yl]-1H-1,2,4-triazol-3-yl}methyl)-1,5-dihydro-4H-1,2,4-triazol-4-yl]-1,1,1-trifluoropropan-2-yl}-1-cyanocyclopropane-1-carboxamide] | 9.1 nM | 53.8 | 490 nM
7 | O=C(CC(F)(F)F)NC(Cn1c(-c2ccc(Cl)cc2)nn(Cc2ncn(-c3ncccc3C(F)(F)F)n2)c1=O)C(F)(F)F (racemic) [Example 67, N-{3-[3-(4-Chlorophenyl)-5-oxo-1-({1-[3-(trifluoromethyl)pyridin-2-yl]-1H-1,2,4-triazol-3-yl}methyl)-1,5-dihydro-4H-1,2,4-triazol-4-yl]-1,1,1-trifluoropropan-2-yl}-3,3,3-trifluoropropanamide] | 1.15 nM | 49.6 | 57 nM
8 | COCC(=O)NC(Cn1c(-c2ccc(Cl)cc2)nn(Cc2ncn(-c3ncccc3C(F)(F)F)n2)c1=O)C(F)(F)F (racemic) [Example 68, N-{3-[3-(4-Chlorophenyl)-5-oxo-1-({1-[3-(trifluoromethyl)pyridin-2-yl]-1H-1,2,4-triazol-3-yl}methyl)-1,5-dihydro-4H-1,2,4-triazol-4-yl]-1,1,1-trifluoropropan-2-yl}-2-methoxyacetamide] | 6.15 nM | 86.2 | 530 nM
9 | O=C(CCC(F)(F)F)NC(Cn1c(-c2ccc(Cl)cc2)nn(Cc2ncn(-c3ncccc3Cl)n2)c1=O)C(F)(F)F (single isomer, unassigned) [Example 33, N-{3-[3-(4-Chlorophenyl)-1-{[1-(3-chloropyridin-2-yl)-1H-1,2,4-triazol-3-yl]methyl}-5-oxo-1,5-dihydro-4H-1,2,4-triazol-4-yl]-1,1,1-trifluoropropan-2-yl}-4,4,4-trifluorobutanamide] | 215 nM |  | 5600 nM
10 | O=C(CCC(F)(F)F)NC(Cn1c(-c2ccc(Cl)cc2)nn(Cc2ncn(-c3ncccc3Cl)n2)c1=O)C(F)(F)F (single isomer, unassigned) [Example 34, N-{3-[3-(4-Chlorophenyl)-1-{[1-(3-chloropyridin-2-yl)-1H-1,2,4-triazol-3-yl]methyl}-5-oxo-1,5-dihydro-4H-1,2,4-triazol-4-yl]-1,1,1-trifluoropropan-2-yl}-4,4,4-trifluorobutanamide] | 0.82 nM |  | 33.5 nM
11 | O=C1CC[C@@H](C(=O)NC(Cn2c(-c3ccc(Cl)cc3)nn(Cc3ncn(-c4ncccc4Cl)n3)c2=O)C(F)(F)F)N1 (single isomer, unassigned) [Example 36, N-{3-[3-(4-Chlorophenyl)-1-{[1-(3-chloropyridin-2-yl)-1H-1,2,4-triazol-3-yl]methyl}-5-oxo-1,5-dihydro-4H-1,2,4-triazol-4-yl]-1,1,1-trifluoropropan-2-yl}-5-oxo-L-prolinamide] | 3.5 nM | 254.3 | 890 nM
12 | O=C1CC[C@@H](C(=O)NC(Cn2c(-c3ccc(Cl)cc3)nn(Cc3ncn(-c4ncccc4Cl)n3)c2=O)C(F)(F)F)N1 (single isomer, unassigned) [Example 37, N-{3-[3-(4-Chlorophenyl)-1-{[1-(3-chloropyridin-2-yl)-1H-1,2,4-triazol-3-yl]methyl}-5-oxo-1,5-dihydro-4H-1,2,4-triazol-4-yl]-1,1,1-trifluoropropan-2-yl}-5-oxo-L-prolinamide] | 295 nM | 108.5 | 32000 nM
13 | O=C(NC(Cn1c(-c2ccc(Cl)cc2)nn(Cc2ncn(-c3ncccc3Cl)n2)c1=O)C(F)(F)F)C1CS(=O)(=O)C1 (single isomer, unassigned) [Example 39, N-{3-[3-(4-Chlorophenyl)-1-{[1-(3-chloropyridin-2-yl)-1H-1,2,4-triazol-3-yl]methyl}-5-oxo-1,5-dihydro-4H-1,2,4-triazol-4-yl]-1,1,1-trifluoropropan-2-yl}thietane-3-carboxamide 1,1-dioxide] | 0.48 nM |  | 53.2 nM
14 | O=C(NC(Cn1c(-c2ccc(Cl)cc2)nn(Cc2ncn(-c3ncccc3Cl)n2)c1=O)C(F)(F)F)C1CS(=O)(=O)C1 (single isomer, unassigned) [Example 40, N-{3-[3-(4-Chlorophenyl)-1-{[1-(3-chloropyridin-2-yl)-1H-1,2,4-triazol-3-yl]methyl}-5-oxo-1,5-dihydro-4H-1,2,4-triazol-4-yl]-1,1,1-trifluoropropan-2-yl}thietane-3-carboxamide 1,1-dioxide] | 370 nM |  | 9870 nM
15 | O=C(NC(Cn1c(-c2ccc(Cl)cc2)nn(Cc2ncn(-c3ncccc3Cl)n2)c1=O)C(F)(F)F)C1(C(F)(F)F)CC1 (single isomer, unassigned) [Example 42, N-{3-[3-(4-Chlorophenyl)-1-{[1-(3-chloropyridin-2-yl)-1H-1,2,4-triazol-3-yl]methyl}-5-oxo-1,5-dihydro-4H-1,2,4-triazol-4-yl]-1,1,1-trifluoropropan-2-yl}-1-(trifluoromethyl)cyclopropane-carboxamide] | 1350 nM |  | 12100 nM
